Reference: patent US11331290B2, “Niclosamide for the treatment of cancer metastasis” (Max-Delbrück-Centrum für Molekulare Medizin in der …, priority 2011, dated 2022)

Tested on: S100A4 protein
Assay: S100A4 protein expression by immunoblot
Format: cell-based, human
Conditions: for S100A4 protein expression: 1 μM
Method: For total protein extraction cells were lysed with RIPA buffer (50 mM Tris-HCl, 150 mM NaCl, 1% Nonidet P-40, supplemented with complete protease inhibitor tablets; Roche) for 30 minutes on ice. For isolation of the nuclear protein fraction, the NE-PER Nuclear and Cytoplasmic Extraction Kit (Pierce) was used according to the manufacturer's instructions. Protein concentration was quantified with Bicinchoninic Acid (BCA) Protein Assay Reagent (Pierce) according to manufacturer's instructions and lysates of equal protein concentration were separated with SDS-PAGE and transferred to Hybond C Extra nitrocellulose membrane (Amersham Biosciences). Membranes were incubated in blocking solution containing 5% nonfat dry milk and 1% bovine serum albumin (BSA) for 1 hour at room temperature. Membranes were incubated overnight at 4° C. with rabbit anti-human-S100A4 antibody (dilution, 1:1500), mouse anti-human-CTNNB1 antibody (dilution, 1:1000), mouse anti-human TUBB1 antibody (dilution, 1:1000), goat anti-human GAPDH antibody (dilution, 1:500) or mouse anti-human PCNA antibody (dilution, 1:1000) followed by incubation for 1 hour at room temperature with HRP-conjugated anti-goat (dilution, 1:10000), anti-rabbit (dilution, 1:10000), anti-mouse IgG (dilution, 1:10000) or anti-mouse IgM (dilution, 1:10000) antibody. Antibody-protein-complexes were visualized with electrochemical-luminescence (ECL) reagent (100 mM Tris-HCl, 0.025% w/v luminol, 0.011% w/v para-hydroxycoumaric acid, 10% v/v dimethylsulfoxide, 0.004% v/v H2O2, pH 8.6) and subsequent exposure to CL-XPosure™ Films (Pierce) for 1 second to 20 minutes. Immunoblotting for GAPDH and PCNA served as protein loading control. Immunoblotting for β-tubulin was used to control that nuclear extracts were free from cytoplasmatic protein. All experiments were performed at least three independent times.
(A) Determination of the cytotoxicity of niclosamide on HCT116 cells. Cells were treated with increasing concentrations of niclosamide for 24 hours and cell viability was measured. (B) Effect of increasing concentrations of niclosamide on S100A4 expression. HCT116 cells were treated with increasing concentrations of niclosamide for 24 hours. S100A4 expression was determined by quantitative reverse-transcription-polymerase chain reaction (qRT-PCR) and immunoblot. (C) Time-dependency of niclosamide effect on S100A4 expression. HCT116 cells were treated with a single dose of 1 μM niclosamide for 24 hours and S100A4 expression was analyzed by qRT-PCR and immunoblot at indicated time points. Black bar indicates the chosen treatment conditions for further experiments. (D) Effect of daily doses of niclosamide on S100A4 expression. HCT116 cells were treated daily with 1 μM niclosamide and S100A4 expression was analyzed by qRT-PCR and immunoblot. Data is given as mean±SD (n>2). Differences in treated groups were compared with the control group by two-sided one-way analysis of variances and Bonferroni post hoc multiple comparison test.
(E) Effect of niclosamide in HCT116-vector and HCT116-S100A4 cells. HCT116-vector and HCT116-S100A4 cells were treated with 1 μM niclosamide for 24 hours and S100A4 expression was analyzed by qRT-PCR and immunoblot. Data is given as mean±SD (n>2). Comparison of niclosamide vs. solvent-treated cells was analyzed with Student's t test.
(A) S100A4 expression under niclosamide treatment. Cells were treated with 1 μM niclosamide for 24 hours. S100A4 expression was analyzed with qRT-PCR and immunoblot. (B) Cell migration under niclosamide treatment. Migration rates of cells treated with 1 μM niclosamide for 24 hours were determined in a Boyden chamber assay values were normalized to solvent-treated SW620 cells. (C) Cell invasion under niclosamide treatment. Cells were seeded onto Matrigel covered transwells and treated with 1 μM niclosamide for 24 hours. Invaded cells in the lower chamber were counted and normalized to solvent-treated SW620 cells. […]

O=C(Nc1ccc([N+](=O)[O-])cc1Cl)c1cc(Cl)ccc1O [niclosamide, 2′,5-dichloro-4′-nitrosalicylanilide]
S100A4 protein expression (DLD-1 cells, 24 h (solvent and niclosamide-treated)): no S100A4 protein was detected | S100A4 protein level (HCT116, 0.1 μM to 2.5 μM, 24 h): reduced in a concentration-dependent manner | S100A4 protein level, % of solvent-treated control cells (HCT116, 1 μM daily): approximately 50% | S100A4 protein (HCT116, three days following discontinuation of niclosamide treatment): clearly reduced | S100A4 protein level (HCT116-S100A4, 1 μM, 24 h): no reduction | activity at 1 µM (Homo sapiens, HCT-116, HCT116, 1 μM, single dose, 24 hours, read-out: S100A4 protein level, % of control): < 50% | S100A4 protein expression (SW620, LS174T and SW480 cells, 24 h): reduced
